According to PMC6548501, “Sterol transfer by atypical cholesterol-binding NPC2 proteins in coral-algal symbiosis” (eLife, 2019):

Biological target: T1, Aiptasia non-canonical NPC2 XM_021052404 (Exaiptasia diaphana, UniProt A0A913XQG8)
T1 construct: expressed in HEK 293T, NPC2 - five-proline linker - crmCherry - 3xHA (C-terminal), lysate, anti-HA pull-down; native protein also precipitated from Aiptasia CC7
T1 sequence (A0A913XQG8 60-190): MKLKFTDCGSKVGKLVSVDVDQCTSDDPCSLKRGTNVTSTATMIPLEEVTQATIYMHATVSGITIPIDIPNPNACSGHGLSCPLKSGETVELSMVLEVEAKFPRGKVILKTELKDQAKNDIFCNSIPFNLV
Test: immunoprecipitation-lipidomics (mass spectrometry of co-eluted sterols)
Assay type: binding
Settings: HEK 293T lysate mixed with Symbiodiniaceae SSB01 homogenate (sterol mixture), pH 7 or pH 5

CC(C)CCC[C@@H](C)[C@H]1CC[C@H]2[C@@H]3CC=C4C[C@@H](O)CC[C@]4(C)[C@H]3CC[C@]12C [cholesterol]
immunoprecipitation-lipidomics (mass spectrometry of co-eluted sterols): directly bound to cholesterol and various sterols the way other NPC2 proteins normally do
